Experimental data as given in ChEMBL document CHEMBL3603790, “2- and 3-Fluoro-3-deazaneplanocins, 2-fluoro-3-deazaaristeromycins, and 3-methyl-3-deazaneplanocin: Synthesis and antiviral properties” (Bioorg Med Chem, 2015).
Activity calls are given as the source filed them. The calls are words filed in the database; no cut-off is given here.

Legend:
Yellow fever virus = test: Antiviral activity against Yellow fever virus infected in African green monkey Vero cells after 3 days by neutral red dye-based plaque reduction assay; format: functional, organism-based; conditions: 72 h
Rift Valley fever virus = test: Antiviral activity against Rift Valley fever virus infected in African green monkey Vero 76 cells after 3 days by neutral red dye-based plaque reduction assay; format: functional, organism-based
Tacaribe virus = test: Antiviral activity against Tacaribe virus infected in African green monkey Vero 76 cells after 3 days by neutral red dye-based plaque reduction assay; format: functional, organism-based; conditions: Mammarenavirus tacaribeense
Dengue virus = test: Antiviral activity against Dengue virus infected in African green monkey Vero cells after 3 days by neutral red dye-based plaque reduction assay; format: functional, organism-based
Measles morbillivirus = test: Antiviral activity against Measles virus infected in African green monkey CV1 cells after 3 days by neutral red dye-based plaque reduction assay; format: functional, organism-based; conditions: CV-1, 72 h
[1] = (§1) Cytotoxicity against African green monkey Vero cells; format: cell-based; conditions: chlorocebus sabaeus, Vero cells
[2] = Cytotoxicity against African green monkey Vero 76 cells; format: cell-based; conditions: chlorocebus sabaeus, vero 76
MDCK = test: Cytotoxicity against MDCK cells; format: cell-based, Canis lupus familiaris; conditions: dog, mdck
[3] = Cytotoxicity against African green monkey CV1 cells; format: cell-based, CV-1; conditions: chlorocebus aethiops
[4] = Selectivity index, ratio of CC50 for African green monkey Vero cells to IC50 for Yellow fever virus; format: functional
[5] = Selectivity index, ratio of CC50 for African green monkey CV1 cells to IC50 for Measles virus; format: functional, CV-1
West Nile virus = test: Antiviral activity against WNV infected in African green monkey Vero 76 cells after 3 days by neutral red dye-based plaque reduction assay; format: functional, organism-based
Cowpox virus = test: Antiviral activity against Cowpox virus infected in HFF after 3 days by neutral red dye-based plaque reduction assay; format: functional, organism-based
Vaccinia virus = test: Antiviral activity against Vaccinia virus infected in HEL cells after 3 days by neutral red dye-based plaque reduction assay; format: functional, organism-based; conditions: Orthopoxvirus vaccinia
[6] = test system: Respiratory syncytial virus; test: Antiviral activity against Respiratory syncytial virus infected in human HeLa cells after 3 days by neutral red dye-based plaque reduction assay; format: functional, organism-based
[7] = test system: Respiratory syncytial virus; test: Antiviral activity against Respiratory syncytial virus infected in monkey MA104 cells after 3 days by neutral red dye-based plaque reduction assay; format: functional, organism-based
Influenza A virus = test: Antiviral activity against Influenza A virus H1N1 infected in MDCK cells after 3 days by neutral red dye-based plaque reduction assay; format: functional, organism-based
[8] = test system: Venezuelan equine encephalitis virus; test: Antiviral activity against Venezuelan equine encephalitis virus infected in African green monkey Vero cells after 3 days by neutral red dye-based plaque reduction assay; format: functional, organism-based
SARS-CoV = test: Antiviral activity against SARS coronavirus infected in African green monkey Vero E6 cells after 3 days by neutral red dye-based plaque reduction assay; format: functional, organism-based; conditions: Severe acute respiratory syndrome-related coronavirus
Hepatitis C virus = test: Antiviral activity against Hepatitis C virus infected in human Ava5 cells after 3 days by neutral red dye-based plaque reduction assay; format: functional, organism-based; conditions: Hepacivirus hominis
Human alphaherpesvirus 1 = test: Antiviral activity against Human herpesvirus 1 infected in HEL cells after 3 days by neutral red dye-based plaque reduction assay; format: functional, organism-based
Human alphaherpesvirus 2 = test: Antiviral activity against Human herpesvirus 2 infected in HEL cells after 3 days by neutral red dye-based plaque reduction assay; format: functional, organism-based
Enterovirus C = test: Antiviral activity against Poliovirus infected in monkey LLC-MK2 cells after 3 days by neutral red dye-based plaque reduction assay; format: functional, organism-based
Chikungunya virus = test: Antiviral activity against Chikungunya virus infected in African green monkey Vero 76 cells after 3 days by neutral red dye-based plaque reduction assay; format: functional, cell-based
Enterovirus A71 = test: Antiviral activity against Enterovirus 71 infected in monkey LLC-MK2 cells after 3 days by neutral red dye-based plaque reduction assay; format: functional, organism-based
Cytomegalovirus = test: Antiviral activity against Cytomegalovirus infected in HEL cells after 3 days by neutral red dye-based plaque reduction assay; format: functional, organism-based
Pichinde virus = test: Antiviral activity against Pichinde virus infected in African green monkey Vero cells after 3 days by neutral red dye-based plaque reduction assay; format: functional, organism-based
Human papillomavirus = test: Antiviral activity against Human papillomavirus infected in HEK293 cells after 3 days by neutral red dye-based plaque reduction assay; format: functional, organism-based
HEL = test: Cytotoxicity against HEL cells; format: cell-based; conditions: human
[9] = Cytotoxicity against monkey MA104 cells; format: cell-based, Macaca mulatta; conditions: rhesus monkey
[10] = Cytotoxicity against human Ava5 cells; format: cell-based
LLC-MK2 = test: Cytotoxicity against monkey LLC-MK2 cells; format: cell-based, Macaca mulatta; conditions: rhesus monkey
HEK293 = test: Cytotoxicity against HEK293 cells; format: cell-based; conditions: human
[11] = Inhibition of rabbit erythrocytic AdoHcy hydrolase using AdoHcy as substrate assessed as formation of L-homocysteine preincubated for 5 mins followed by substrate addition measured after 1 hr by thiol quantitation reagent-based assay; set-up: species or system Oryctolagus cuniculus
HeLa = test: Cytotoxicity against human HeLa cells; format: cell-based
[12] = Cytotoxicity against African green monkey Vero E6 cells; format: cell-based; conditions: chlorocebus sabaeus
Human betaherpesvirus 5 = test: Antiviral activity against HCMV infected in HFF after 3 days by neutral red dye-based plaque reduction assay; format: functional, organism-based; conditions: Human betaherpesvirus 5, 72 h
Hepatitis B virus = test: Antiviral activity against HBV infected in human HepG22.2.15 cells after 3 days by neutral red dye-based plaque reduction assay; format: functional, organism-based; conditions: HepG2 2.2.15, 72 h
[13] = Cytotoxicity against HFF; format: cell-based; conditions: human, HFF cells
[14] = Cytotoxicity against human […] cells; format: cell-based
[15] = Selectivity index, ratio of CC50 for HFF to IC50 for HCMV; format: functional
[16] = Selectivity index, ratio of CC50 for human HepG2(2.2.1) cells to IC50 for HBV; format: functional
Vero = test: as §1; format: cell-based; conditions: chlorocebus sabaeus, vero

SMILES: Nc1nc(F)cc2c1ncn2[C@@H]1C[C@H](O)[C@@H](O)[C@H]1O
- IC50 (Yellow fever virus): 15 µM
- Activity (Rift Valley fever virus): inactive
- Activity (Tacaribe virus): inactive
- Activity (Dengue virus): inactive
- IC50 (Measles morbillivirus): 30.2 µM
- CC50 [1]: > 100 µM
- Activity [2]: Non-toxic
- Activity (MDCK): Non-toxic
- CC50 [3]: > 100 µM
- Ratio CC50/IC50 [4]: >6.7
- Ratio CC50/IC50 [5]: >3
- Activity (West Nile virus): inactive
- Activity (Cowpox virus): inactive
- Activity (Vaccinia virus): inactive
- Activity [6]: inactive
- Activity [7]: inactive
- Activity (Influenza A virus): inactive
- Activity [8]: inactive
- Activity (SARS-CoV): inactive
- Activity (Hepatitis C virus): inactive
- Activity (Human alphaherpesvirus 1): inactive
- Activity (Human alphaherpesvirus 2): inactive
- Activity (Enterovirus C): inactive
- Activity (Chikungunya virus): inactive
- Activity (Enterovirus A71): inactive
- Activity (Cytomegalovirus): inactive
- Activity (Pichinde virus): inactive
- Activity (Human papillomavirus): inactive
- Activity (HEL): Non-toxic
- Activity [9]: Non-toxic
- Activity [10]: Non-toxic
- Activity (LLC-MK2): Non-toxic
- Activity (HEK293): Non-toxic
- IC50 [11]: 1 µM
- Activity (HeLa): Non-toxic
- Activity [12]: Non-toxic

SMILES: Nc1nc(F)cc2c1ncn2[C@@H]1C=C(CO)[C@@H](O)[C@H]1O
- IC50 (Yellow fever virus): 6.8 µM
- Activity (Rift Valley fever virus): inactive
- Activity (Dengue virus): inactive
- IC50 (Human betaherpesvirus 5): 8.7 µM
- IC50 (Hepatitis B virus): 0.67 µM
- IC50 (Measles morbillivirus): 8.5 µM
- CC50 [1]: > 100 µM
- Activity [2]: Non-toxic
- CC50 [13]: 218 µM
- Activity (MDCK): Non-toxic
- CC50 [14]: 11 µM
- CC50 [3]: > 100 µM
- Ratio CC50/IC50 [4]: >50
- Ratio CC50/IC50 [15]: 25
- Ratio CC50/IC50 [16]: 17
- Ratio CC50/IC50 [5]: >12
- Activity (West Nile virus): inactive
- Activity (Vaccinia virus): inactive
- Activity [6]: inactive
- Activity [7]: inactive
- Activity (Influenza A virus): inactive
- Activity [8]: inactive
- Activity (SARS-CoV): inactive
- Activity (Hepatitis C virus): inactive
- Activity (Human alphaherpesvirus 1): inactive
- Activity (Human alphaherpesvirus 2): inactive
- Activity (Enterovirus C): inactive
- Activity (HEL): Non-toxic
- Activity [9]: Non-toxic
- Activity [10]: Non-toxic
- Activity (LLC-MK2): Non-toxic
- IC50 [11]: 1.4 µM
- Activity (HeLa): Non-toxic
- Activity [12]: Non-toxic

SMILES: Nc1nc(F)cc2c1ncn2[C@@H]1C[C@H](CCO)[C@@H](O)[C@H]1O
- Activity (Rift Valley fever virus): inactive
- Activity (Tacaribe virus): inactive
- Activity (Dengue virus): inactive
- IC50 (Measles morbillivirus): 162 µM
- Activity (Vero): Non-toxic
- Activity [2]: Non-toxic
- CC50 [3]: > 338 µM
- Ratio CC50/IC50 [5]: >2.1
- Activity (West Nile virus): inactive
- Activity (Vaccinia virus): inactive
- Activity [6]: inactive
- Activity [7]: inactive
- Activity [8]: inactive
- Activity (Hepatitis C virus): inactive
- Activity (HEL): Non-toxic
- Activity [9]: Non-toxic
- Activity [10]: Non-toxic
- IC50 [11]: 3.75 µM
- Activity (HeLa): Non-toxic
